According to PubChem BioAssay (NCI):
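96-well plates; 48 h exposure; 5 concentrations. Endpoints by linear interpolation between flanking doses. Not reached: highest tested concentration assigned. TGI: total growth inhibition.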

Legend:
Assay in all cases: DTP human tumour cell line panel, 48 h
SW-620 colon = system: SW-620 colon
M14 melanoma = system: M14 melanoma
CCRF-CEM leukemia = system: CCRF-CEM leukemia
HOP-62 NSCLC = system: HOP-62 NSCLC
HT29 colon = system: HT29 colon
SK-MEL-28 melanoma = system: SK-MEL-28 melanoma
DMS 114 small cell lung = system: DMS 114 small cell lung
K-562 leukemia = system: K-562 leukemia
XF 498 CNS = system: XF 498 CNS
KM20L2 colon = system: KM20L2 colon
IGROV1 ovarian = system: IGROV1 ovarian
HCC-2998 colon = system: HCC-2998 colon
A549 NSCLC = system: A549 NSCLC
UACC-62 melanoma = system: UACC-62 melanoma
OVCAR-4 ovarian = system: OVCAR-4 ovarian
OVCAR-5 ovarian = system: OVCAR-5 ovarian
SF-295 CNS = system: SF-295 CNS
HCT-116 colon = system: HCT-116 colon
U251 CNS = system: U251 CNS
UACC-257 melanoma = system: UACC-257 melanoma
OVCAR-3 ovarian = system: OVCAR-3 ovarian
SK-MEL-2 melanoma = system: SK-MEL-2 melanoma
RPMI-8226 leukemia = system: RPMI-8226 leukemia
HCT-15 colon = system: HCT-15 colon
MOLT-4 leukemia = system: MOLT-4 leukemia
SF-539 CNS = system: SF-539 CNS
A498 renal = system: A498 renal
SNB-19 CNS = system: SNB-19 CNS
SNB-75 CNS = system: SNB-75 CNS
DMS 273 small cell lung = system: DMS 273 small cell lung
EKVX NSCLC = system: EKVX NSCLC
786-0 renal = system: 786-0 renal
SK-MEL-5 melanoma = system: SK-MEL-5 melanoma
NCI-H23 lung = system: NCI-H23 lung
COLO 205 colon = system: COLO 205 colon
TK-10 renal = system: TK-10 renal
SN12C renal = system: SN12C renal
RXF-631 renal = system: RXF-631 renal
SK-OV-3 ovarian = system: SK-OV-3 ovarian
HL-60(TB) leukemia = system: HL-60(TB) leukemia
NCI-H460 lung = system: NCI-H460 lung
LOX IMVI melanoma = system: LOX IMVI melanoma
M19-MEL melanoma = system: M19-MEL melanoma
OVCAR-8 ovarian = system: OVCAR-8 ovarian
NCI-H522 lung = system: NCI-H522 lung
ACHN renal = system: ACHN renal
CAKI-1 renal = system: CAKI-1 renal
LXFL 529 NSCLC = system: LXFL 529 NSCLC
UO-31 renal = system: UO-31 renal
KM12 colon = system: KM12 colon
HOP-92 NSCLC = system: HOP-92 NSCLC
MALME-3M melanoma = system: MALME-3M melanoma
DLD-1 colon = system: DLD-1 colon
NCI-H226 lung = system: NCI-H226 lung
SF-268 CNS = system: SF-268 CNS
SNB-78 CNS = system: SNB-78 CNS
HOP-18 NSCLC = system: HOP-18 NSCLC
RXF 393 renal = system: RXF 393 renal

Measured: TGI

Cc1cc(N(CCC#N)CCC#N)ccc1/C=C/C(=O)Nc1cccc(Cl)c1
> 100 µM: SW-620 colon | M14 melanoma | CCRF-CEM leukemia | HOP-62 NSCLC | HT29 colon | SK-MEL-28 melanoma | DMS 114 small cell lung | K-562 leukemia | XF 498 CNS | KM20L2 colon | IGROV1 ovarian | HCC-2998 colon | A549 NSCLC | UACC-62 melanoma | OVCAR-4 ovarian | OVCAR-5 ovarian | SF-295 CNS | HCT-116 colon | U251 CNS | UACC-257 melanoma | OVCAR-3 ovarian | SK-MEL-2 melanoma | RPMI-8226 leukemia | HCT-15 colon | MOLT-4 leukemia | SF-539 CNS | A498 renal | SNB-19 CNS | SNB-75 CNS | DMS 273 small cell lung | EKVX NSCLC | 786-0 renal | SK-MEL-5 melanoma | NCI-H23 lung | COLO 205 colon | TK-10 renal | SN12C renal | RXF-631 renal | SK-OV-3 ovarian | HL-60(TB) leukemia | NCI-H460 lung | LOX IMVI melanoma | M19-MEL melanoma | OVCAR-8 ovarian | NCI-H522 lung | ACHN renal | CAKI-1 renal | LXFL 529 NSCLC | UO-31 renal | KM12 colon | HOP-92 NSCLC | MALME-3M melanoma | DLD-1 colon | NCI-H226 lung | SF-268 CNS

Nn1c(-c2ccccc2Cl)nc2ccccc2c1=O
> 100 µM: SW-620 colon | M14 melanoma | CCRF-CEM leukemia | HOP-62 NSCLC | HT29 colon | SK-MEL-28 melanoma | DMS 114 small cell lung | K-562 leukemia | XF 498 CNS | KM20L2 colon | IGROV1 ovarian | HCC-2998 colon | A549 NSCLC | UACC-62 melanoma | OVCAR-4 ovarian | OVCAR-5 ovarian | SF-295 CNS | HCT-116 colon | U251 CNS | UACC-257 melanoma | OVCAR-3 ovarian | SK-MEL-2 melanoma | RPMI-8226 leukemia | HCT-15 colon | MOLT-4 leukemia | SF-539 CNS | A498 renal | SNB-19 CNS | SNB-75 CNS | DMS 273 small cell lung | EKVX NSCLC | 786-0 renal | SK-MEL-5 melanoma | NCI-H23 lung | SNB-78 CNS | COLO 205 colon | TK-10 renal | SN12C renal | RXF-631 renal | SK-OV-3 ovarian | HOP-18 NSCLC | HL-60(TB) leukemia | NCI-H460 lung | M19-MEL melanoma | OVCAR-8 ovarian | NCI-H522 lung | ACHN renal | CAKI-1 renal | LXFL 529 NSCLC | UO-31 renal | KM12 colon | HOP-92 NSCLC | MALME-3M melanoma | DLD-1 colon | NCI-H226 lung | SF-268 CNS

CCOC(=O)c1nc2ccc([N+](=O)[O-])cc2c2c1CCO2
> 100 µM: SW-620 colon | M14 melanoma | CCRF-CEM leukemia | HOP-62 NSCLC | HT29 colon | SK-MEL-28 melanoma | DMS 114 small cell lung | K-562 leukemia | XF 498 CNS | KM20L2 colon | IGROV1 ovarian | HCC-2998 colon | A549 NSCLC | UACC-62 melanoma | OVCAR-4 ovarian | OVCAR-5 ovarian | SF-295 CNS | HCT-116 colon | U251 CNS | UACC-257 melanoma | OVCAR-3 ovarian | SK-MEL-2 melanoma | HCT-15 colon | MOLT-4 leukemia | SF-539 CNS | RXF 393 renal | A498 renal | SNB-19 CNS | SNB-75 CNS | DMS 273 small cell lung | EKVX NSCLC | 786-0 renal | SK-MEL-5 melanoma | NCI-H23 lung | SNB-78 CNS | COLO 205 colon | TK-10 renal | SN12C renal | RXF-631 renal | SK-OV-3 ovarian | HOP-18 NSCLC | HL-60(TB) leukemia | NCI-H460 lung | LOX IMVI melanoma | M19-MEL melanoma | OVCAR-8 ovarian | NCI-H522 lung | ACHN renal | CAKI-1 renal | LXFL 529 NSCLC | KM12 colon | MALME-3M melanoma | DLD-1 colon | NCI-H226 lung | SF-268 CNS
